Reference: the NIST ThermoML archive (doi:10.1021/acs.jced.8b00591)

Experiment: xn = mol fraction of the nth substance listed
Details: 101.3 kPa, Liquid; for viscosity: Falling or rolling sphere viscometry; for mass density: Vibrating tube method

CCn1cc[n+](C)c1.O=S(=O)([N-]S(=O)(=O)C(F)(F)F)C(F)(F)F + COC(=O)OC
Details	mass density [kg/m3]	viscosity [mPa·s]
288.15 K, x1 = 0.0989	1199.15	1.579
288.15 K, x1 = 0.1983	1282.85	2.913
288.15 K, x1 = 0.2973	1342.57	4.862
288.15 K, x1 = 0.3958	1387.69	7.561
288.15 K, x1 = 0.496	1423.97	11.21
288.15 K, x1 = 0.5954	1452.55	16.89
288.15 K, x1 = 0.6967	1476.87	22.56
288.15 K, x1 = 0.7982	1497.52	30.07
288.15 K, x1 = 0.9004	1514.5	38.55
288.15 K, x1 = 1	1528.55	49.41
293.15 K, x1 = 0.0989	1193.1	1.451
293.15 K, x1 = 0.1983	1277.11	2.637
293.15 K, x1 = 0.2973	1337.02	4.332
293.15 K, x1 = 0.3958	1382.28	6.635
293.15 K, x1 = 0.496	1418.62	9.698
293.15 K, x1 = 0.5954	1447.28	14.58
293.15 K, x1 = 0.6967	1471.62	19.02
293.15 K, x1 = 0.7982	1492.37	25.12
293.15 K, x1 = 0.9004	1509.39	31.87
293.15 K, x1 = 1	1523.47	40.36
298.15 K, x1 = 0.0989	1187.03	1.348
298.15 K, x1 = 0.1983	1271.35	2.4
298.15 K, x1 = 0.2973	1331.47	3.884
298.15 K, x1 = 0.3958	1376.85	5.878
298.15 K, x1 = 0.496	1413.28	8.484
298.15 K, x1 = 0.5954	1442.02	12.53
298.15 K, x1 = 0.6967	1466.42	16.66
298.15 K, x1 = 0.7982	1487.23	21.25
298.15 K, x1 = 0.9004	1504.28	26.71
298.15 K, x1 = 1	1518.39	33.52
303.15 K, x1 = 0.0989	1180.95	1.25
303.15 K, x1 = 0.1983	1265.59	2.195
303.15 K, x1 = 0.2973	1325.91	3.507
303.15 K, x1 = 0.3958	1371.44	5.241
303.15 K, x1 = 0.496	1407.96	7.472
303.15 K, x1 = 0.5954	1436.78	10.8
303.15 K, x1 = 0.6967	1461.24	14.52
303.15 K, x1 = 0.7982	1482.09	18.37
303.15 K, x1 = 0.9004	1499.19	22.66
303.15 K, x1 = 1	1513.34	28.35
308.15 K, x1 = 0.0989	1174.86	1.162
308.15 K, x1 = 0.1983	1259.83	2.019
308.15 K, x1 = 0.2973	1320.35	3.177
308.15 K, x1 = 0.3958	1366.03	4.706
308.15 K, x1 = 0.496	1402.66	6.64
308.15 K, x1 = 0.5954	1431.55	9.382
308.15 K, x1 = 0.6967	1456.07	12.62
308.15 K, x1 = 0.7982	1476.98	16.22
308.15 K, x1 = 0.9004	1494.12	19.42
308.15 K, x1 = 1	1508.3	24.15
313.15 K, x1 = 0.0989	1168.75	1.086
313.15 K, x1 = 0.1983	1254.07	1.865
313.15 K, x1 = 0.2973	1314.81	2.904
313.15 K, x1 = 0.3958	1360.63	4.247
313.15 K, x1 = 0.496	1397.36	5.946
313.15 K, x1 = 0.5954	1426.34	8.189
313.15 K, x1 = 0.6967	1450.93	10.96
313.15 K, x1 = 0.7982	1471.88	14.22
313.15 K, x1 = 0.9004	1489.06	17.21
313.15 K, x1 = 1	1503.28	20.76
318.15 K, x1 = 0.0989	1162.63	1.016
318.15 K, x1 = 0.1983	1248.3	1.729
318.15 K, x1 = 0.2973	1309.26	2.661
318.15 K, x1 = 0.3958	1355.23	3.831
318.15 K, x1 = 0.496	1392.08	5.358
318.15 K, x1 = 0.5954	1421.14	7.249
318.15 K, x1 = 0.6967	1445.79	9.578
318.15 K, x1 = 0.7982	1466.8	12.43
318.15 K, x1 = 0.9004	1484.02	15.16
318.15 K, x1 = 1	1498.27	17.9
323.15 K, x1 = 0.0989	1156.5	0.954
323.15 K, x1 = 0.1983	1242.54	1.608
323.15 K, x1 = 0.2973	1303.72	2.452
323.15 K, x1 = 0.3958	1349.85	3.512
323.15 K, x1 = 0.496	1386.81	4.857
323.15 K, x1 = 0.5954	1415.92	6.332
323.15 K, x1 = 0.6967	1440.67	8.381
323.15 K, x1 = 0.7982	1461.74	10.9
323.15 K, x1 = 0.9004	1479	13.29
323.15 K, x1 = 1	1493.28	15.93
328.15 K, x1 = 0.0989	1150.34	0.898
328.15 K, x1 = 0.1983	1236.76	1.501
328.15 K, x1 = 0.2973	1298.19	2.268
328.15 K, x1 = 0.3958	1344.47	3.224
328.15 K, x1 = 0.496	1381.55	4.421
328.15 K, x1 = 0.5954	1410.75	5.588
328.15 K, x1 = 0.6967	1435.57	7.456
328.15 K, x1 = 0.7982	1456.69	9.61
328.15 K, x1 = 0.9004	1474	11.68
328.15 K, x1 = 1	1488.31	14.26
